Target: T1, MmMgmA (Methanothermobacter marburgensis, UniProt D9PY35)
T1 construct: gene MTBMA_c15540; full-length; E. coli BL21(DE3) from codon-optimised gene in pET28a, reconstituted with 4Fe-4S and cobalamin (structure, kinetics); also TAP-tagged from M. acetivorans (native cobamide, peptide assay)
T1 sequence (D9PY35 1-430): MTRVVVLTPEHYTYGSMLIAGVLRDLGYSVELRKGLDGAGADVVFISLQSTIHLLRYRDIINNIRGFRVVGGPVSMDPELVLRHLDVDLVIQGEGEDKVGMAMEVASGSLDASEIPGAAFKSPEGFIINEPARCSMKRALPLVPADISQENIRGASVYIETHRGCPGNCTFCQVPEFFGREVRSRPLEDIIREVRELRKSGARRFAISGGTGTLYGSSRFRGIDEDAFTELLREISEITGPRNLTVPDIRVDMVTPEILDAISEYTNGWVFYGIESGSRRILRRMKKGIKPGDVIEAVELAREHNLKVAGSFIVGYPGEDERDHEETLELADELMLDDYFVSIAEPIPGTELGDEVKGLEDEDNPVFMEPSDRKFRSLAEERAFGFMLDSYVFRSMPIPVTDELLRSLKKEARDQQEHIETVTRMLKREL
Assay: UHPLC-MS of […]'-dAH and SAH
Assay type: biochemical
Details: reconstituted enzyme; 500 µM SAM, 200 µM McrA peptide, 2 mM Ti citrate, 250 mM KCl, 50 mM HEPES pH 7.5

C[S+](CC[C@H](N)C(=O)O)C[C@H]1O[C@@H](n2cnc3c(N)ncnc32)[C@H](O)[C@@H]1O (stereo partly shown) [SAM]
UHPLC-MS of 5'-dAH and SAH: The reconstituted enzyme was highly active
